Test results reported in ChEMBL document CHEMBL1145107, “Peptide science: exploring the use of chemical principles and interdisciplinary collaboration for understanding life processes” (J Med Chem, 2003).
*1 amine or outer side, *2 acyl side, *3 side chain or, on linkers, in order; H or OH if unused. Where a SMILES comes first, the peptide text is derived from it. [ ]: non-standard residue; d: D form. X3 = Cc1cc(O)cc(C)c1[C@@H](C)[C@H](N[*:1])C(=O)[*:2]; Pen = CC(C)(S)[C@H](N)C(=O)O

Columns and labels:
[1] = target: Delta-type opioid receptor (Mus musculus, UniProt P32300); assay: In vitro bioassay data to determine the effective concentration required for antagonistic activity against Opioid receptor delta 1 in functional assay, MVD
Sequence of Delta-type opioid receptor (Mus musculus, UniProt P32300) (P32300 whole entry): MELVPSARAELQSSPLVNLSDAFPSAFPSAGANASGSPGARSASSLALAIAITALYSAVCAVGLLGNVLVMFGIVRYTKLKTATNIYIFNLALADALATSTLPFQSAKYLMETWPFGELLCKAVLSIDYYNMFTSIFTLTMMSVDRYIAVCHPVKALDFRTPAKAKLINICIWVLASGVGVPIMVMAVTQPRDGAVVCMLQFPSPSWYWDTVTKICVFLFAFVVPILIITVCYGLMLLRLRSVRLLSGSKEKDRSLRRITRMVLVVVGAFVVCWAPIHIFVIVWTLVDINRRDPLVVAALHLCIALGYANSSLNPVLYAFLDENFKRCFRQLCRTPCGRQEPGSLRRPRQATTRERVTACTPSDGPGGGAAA

[2] = target: Delta-type opioid receptor (Rattus norvegicus, UniProt P33533); assay: Binding affinity towards Opioid receptor delta 1 using [3H]- [p-CIPhe4] DPDPE as radioligand
Sequence of Delta-type opioid receptor (Rattus norvegicus, UniProt P33533) (P33533 whole entry): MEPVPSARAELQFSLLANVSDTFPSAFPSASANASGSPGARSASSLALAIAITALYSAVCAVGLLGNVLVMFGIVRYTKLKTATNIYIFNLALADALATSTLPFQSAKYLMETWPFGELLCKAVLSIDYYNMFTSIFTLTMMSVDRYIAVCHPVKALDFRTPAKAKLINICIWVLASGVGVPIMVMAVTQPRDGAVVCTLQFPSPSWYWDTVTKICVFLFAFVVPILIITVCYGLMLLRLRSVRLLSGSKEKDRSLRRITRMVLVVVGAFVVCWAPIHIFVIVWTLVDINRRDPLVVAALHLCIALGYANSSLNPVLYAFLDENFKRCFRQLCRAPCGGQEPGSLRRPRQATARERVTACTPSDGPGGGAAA

Mu-type opioid receptor [3] = target: Mu-type opioid receptor (Homo sapiens, UniProt P35372); assay: Binding affinity towards Opioid receptor mu 1 using [3H]- CTOP as radioligand
Sequence of Mu-type opioid receptor (Homo sapiens, UniProt P35372) (P35372 whole entry): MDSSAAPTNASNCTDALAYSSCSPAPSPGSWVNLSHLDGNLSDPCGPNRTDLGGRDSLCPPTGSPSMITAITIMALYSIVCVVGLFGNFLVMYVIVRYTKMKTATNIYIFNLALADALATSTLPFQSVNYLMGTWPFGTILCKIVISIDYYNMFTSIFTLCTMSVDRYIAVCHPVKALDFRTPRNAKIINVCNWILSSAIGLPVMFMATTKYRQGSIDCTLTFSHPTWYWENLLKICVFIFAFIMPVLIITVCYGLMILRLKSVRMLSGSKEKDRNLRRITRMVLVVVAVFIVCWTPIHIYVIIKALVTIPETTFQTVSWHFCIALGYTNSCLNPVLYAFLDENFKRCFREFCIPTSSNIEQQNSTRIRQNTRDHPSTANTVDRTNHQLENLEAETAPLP

Mu-type opioid receptor [4] = target: Mu-type opioid receptor (Cavia porcellus, UniProt P97266); assay: In vitro bioassay data to determine the effective concentration required for antagonistic activity against Opioid receptor mu 1 in functional assay, GPI
Sequence of Mu-type opioid receptor (Cavia porcellus, UniProt P97266) (P97266 whole entry): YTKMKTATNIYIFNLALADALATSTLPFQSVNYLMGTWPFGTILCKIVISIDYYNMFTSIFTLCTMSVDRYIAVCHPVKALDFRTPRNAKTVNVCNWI

[5] = target: Mu-type opioid receptor (Cavia porcellus) (UniProt P97266); assay: In vitro bioassay data to determine the effective concentration required for antagonistic activity against Opioid receptor mu 1 in functional assay, GPI at a concentration of 60 uM; set-up: scale not given: the % may be the effect or the level left
Sequence of Mu-type opioid receptor (Cavia porcellus) (P97266 whole entry): as above

| SMILES | EC50 [1] [µM] | IC50 [2] [µM] | IC50 (Mu-type opioid receptor [3]) [µM] | EC50 (Mu-type opioid receptor [4]) [µM] | Activity [5] [%] |
| --- | --- | --- | --- | --- | --- |
| Cc1cc(O)cc(C)c1[C@@H](C)[C@@H](N)C(=O)N[C@H]1C(=O)NCC(=O)N[C@@H](Cc2ccccc2)C(=O)N[C@@H](C(=O)O)C(C)(C)SSC1(C)C | 2.2 | 3.5 | 77 | 50 |  |
| Cc1cc(O)cc(C)c1[C@@H](C)[C@H](N)C(=O)N[C@H](C(=O)NCC(=O)N[C@@H](Cc1ccccc1)C(=O)N[C@H](C(=O)O)C(C)(C)S)C(C)(C)S (H-[X3][Pen]GF[Pen]-OH) |  |  |  |  | 0 |
